Assay [1] concerns L. monocytogenes strains (ATCC 43256, ATCC 19116, and Pat Type 1). The experiment in a line: Selectivity of the biosensor assay, Listeria strains. The assay is classed as binding, Listeria monocytogenes. The settings on record: 10^4 cells/10 μL; control sample (water) 12000±2000. The procedure:
(§1) The selectivity of the biosensor assay was tested with three L. monocytogenes strains (ATCC 43256, ATCC 19116, and Pat Type 1), B. cereus ATCC 14579, S. aureus ATCC 29213, S. enterica, and E. coli DHα. Water (no bacteria) was used as a control. Another control used was with a negative peptide (24-mer) spot, and L. monocytogenes 19116 was used. The biosensor assay was performed as described above.

The subject of assay [2] is L. monocytogenes species. Conditions: against L. monocytogenes species; cited from earlier work.
Assay [3] concerns B. cereus ATCC 14579. The experiment in a line: Selectivity of the biosensor assay, B. cereus. The assay is classed as binding, Bacillus cereus. The settings on record: 10^4 cells/10 μL; control 12000±2000. The procedure: as §1
The test system of assay [4] is L. monocytogenes ATCC 19116. The experiment in a line: LeuA-conjugated PVDF membrane assay: sample volumes and limit of detection. The assay is classed as binding, Listeria monocytogenes. How it is done:
Detection of L. monocytogenes from different sample volumes. Six circular membranes conjugated with peptide LeuA were prepared as described above. Peptide-conjugated membranes were exposed to three samples of different volumes (500 μL, 1 mL, and 5 mL) each containing same number of L. monocytogenes ATCC 19116 (2000 cfu). Membranes were also exposed to samples (water) with no bacteria (500 μL, 1 mL, and 5 mL) to serve as controls. After passing the samples through the membranes, all membranes were reacted with AuNC (500 μL, 100 μL stock diluted to 500 μL with water) to label the bound bacteria. Excess AuNC from each membrane was removed by vacuum and the membrane was allowed to dry for ˜15-20 mins before fluorescence imaging. The fluorescence of each membrane was read using a BioRad Imager. […] The increase in fluorescence was calculated using the following equation. [formula] Estimation of the limit of detection for L. monocytogenes. Four circular membranes conjugated with peptide LeuA were prepared as described above. The membranes were exposed to samples (500 μL) containing different numbers of L. monocytogenes ATCC 19116 (0, 200, 2000, or 20000 CFU). The rest of the assay was performed as described above.

Assay [5] relates to L. monocytogenes 19116. Nature of the assay: Detection of Listeria monocytogenes in spiked milk sample (glass biosensor). The assay is classed as binding. The settings on record: whole milk (3.5% fat) diluted with water, 10^3 cells/μL. The procedure:
Detection of Listeria monocytogenes in spiked milk sample. A spiked milk sample was prepared using milk (3.5% fat, 1 mL) diluted with water (9 mL). L. monocytogenes 19116 was added to the diluted milk to obtain a bacterial concentration of 10^4 cfu/10 μL. Water was used as a control. The biosensor assay was performed on the spiked milk sample as described above.

Assay [6] deals with L. monocytogenes Type I. Nature of the assay: Bioactivity agar plate assay (zone of inhibition). The class given is cell-based, Listeria monocytogenes. Conditions: peptide 2.3, 0.23, 0.023 mM, 10 μL spots; 37° C., 24 hours. How it is done:
Bioactivity. LeuA and negative peptide were checked for activity using agar plate inoculated with L. monocytogenes Type I. Briefly, a TSB agar plate was spotted with different concentrations of peptide (2.3, 0.23, and 0.023 mM, dissolved in water) with a spot volume of 10 μL. Then the 6 mL soft agar inoculated with 60 μL L. monocytogenes (overnight culture, undiluted) was plated over the TSB agar. The plate was incubated at 37° C. and zone of inhibition was checked after 24 hours.

Assay [7] has as its system E. coli DHα. Nature of the assay: Selectivity of the biosensor assay, E. coli. The assay is classed as binding, Escherichia coli. The settings on record: 10^4 cells/10 μL; one value for both Gram-negative bacteria; control 12000±2000. How it is done: as §1
The test system of assay [8] is S. aureus ATCC 29213. The experiment in a line: Selectivity of the biosensor assay, S. aureus. The class given is binding, Staphylococcus aureus. Conditions: 10^4 cells/10 μL; control 12000±2000. How it is done: as §1
For assay [9], the system named is S. enterica Serovar Enteritidis. Nature of the assay: Selectivity of the biosensor assay, S. enterica. The class given is binding, Salmonella enterica. Conditions: 10^4 cells/10 μL; one value for both Gram-negative bacteria; control 12000±2000. The procedure:
as §1

Assay [10] concerns S. aureus ATCC 13565. The settings on record: observed previously; cited from earlier work.
Assay [11] has as its system L. monocytogenes ATCC 43256. Nature of the assay: Detecting L. monocytogenes using AuNC on LeuA-spotted glass surface. The settings on record: Leu A 10 μL 0.13 mM, 10^4 cells, AuNC 12 μL; AuNC alone 31860±11608, peptide + AuNC without bacteria 34352±1812. The class given is binding, Listeria monocytogenes. How it is done: Detecting L. monocytogenes using AuNC on glass surface. An aqueous solution of Leu A (10 μL, 0.13 mM) was spotted on a glass slide (˜4 mm diameter) in triplicate. The peptide spots were allowed to air dry (˜20 min). This was followed by spotting bacteria L. monocytogenes ATCC 43256 (10 μL, 10^4 cells) or no bacteria (10 μL water) on top of the peptide spot. The glass slide was then dipped in MilIQ water for 10 seconds to remove all non-bound bacteria. The slide was allowed to air dry and finally AuNC (12 μL) was deposited on each spot. AuNC (12 μL) alone was also spotted as a control. The mean fluorescence intensity was recorded using Chemidoc imager. The experiment was repeated three times.

The subject of assay [12] is L. monocytogenes ATCC 19116. The experiment in a line: Glass biosensor assay: peptide concentration optimization and limit of detection. The assay is classed as binding, Listeria monocytogenes. The procedure: Optimization of peptide concentration. The bio-sensor was optimized by testing different LeuA concentrations. The slide was spotted with 10 μL of varying peptide concentrations (0, 0.013, 0.025, 0.064, or 0.13 mM). The peptide spot was allowed to air dry for 20 min. Next, bacteria (L. monocytogenes ATCC 19116) was spotted at a constant concentration (10 μL, 10^4 cfu). After drying, the slides were dipped in MilIQ water for 10 seconds. Lastly AuNC (12 μl) was spotted to quantify the fluorescence intensity of the spots.
Sensitivity and selectivity of the biosensor. To obtain the limit of detection (LOD), the biosensor assay was performed with varying number of bacteria in 10 μL sample. An overnight culture of L. monocytogenes ATCC 19116 was diluted to obtain samples with 0, 200, 1000, 2000, and 10000 cfu/10 μL. A glass slide was prepared with peptide spots (Leu A, 0.13 mM, 10 μL) as descried above and bacteria (10 μL) were spotted on the peptide spot followed by AuNC labeling and fluorescence recording using Chemidoc imager.

Assay [13] relates to Listeria innocua ATCC 33091. Nature of the assay: Detection of bacteria using AuNC on LeuA-conjugated PVDF membrane. The assay is classed as binding. Conditions: 5000 cfu in 500 μL water; baseline without bacteria 3880. The source says:
Detection of bacteria using AuNC on membrane. A low-fluorescence polyvinylidene difluoride (PVDF) membrane (Thermo Scientific) was cut into 3 small circular pieces (˜0.75 cm radius). The circular membrane was placed on a membrane holder which was connected to a side arm Erlenmeyer flask with vacuum. Each membrane was first washed with copious amount of water by allowing water to filter through the membrane using a gentle vacuum. Membranes 1 and 2 were then conjugated with peptide LeuA by delivering 100 μL peptide solution (0.012 mM). The peptide was allowed to bind the membrane for ˜20 minutes and then excess, unbound peptide was removed by vacuum. Next, the peptide-conjugated membranes were exposed to samples with bacteria (5000 cfu Listeria innocua ATCC 33091 in 500 μL water; membrane 1) or without bacteria (500 μL water; membrane 2). […] Excess AuNC was removed by vacuum and the membrane was allowed to dry for ˜15-20 mins before fluorescence imaging. The fluorescence of each membrane was read using BioRad Imager (FIG. 12). […] The fluorescence for the peptide-conjugated membrane alone (no bacteria; membrane 2) could be due to the binding of AuNC to the peptide. This represents baseline fluorescence (3880) and any increase in fluorescence from baseline represents the presence of bacteria as shown in FIG. 12. […]

Positions of bridges follow the written chain, without caps; N, C: chain ends. No end group written: not given here.

Take “Leucocin A (KYYGNGVHCTKSGCSVNWGEAFSAGVHRLANGGNGFW-OH; disulfide 9-14 (inferred)) [LeuA]”: the “fluorescence of AuNC-labeled bound bacteria” value in assay [1] is given as 28000-33000; in assay [3] it was 13000±1600; in assay [7], 12000±800; in [8], 18000±2100; in [9], 12000±800. Besides, the “minimum inhibitory concentration (MIC)” value in [2] is “low nanomolar range”. The “percent increase in fluorescence” value in assay [4] (200 cfu in 500 μL) turned out to be 11.7%; in [4] (2000 cfu in 500 μL), 15.9%; in [4] (20000 cfu in 500 μL) it was 26.1%. Also, in assay [4] (2000 cfu in 500 μL, 1 mL and 5 mL), the “percent (%) increase in fluorescence” value is 15-20%. Further, the “fluorescence of spiked milk sample compared to the milk alone” value in assay [5] was “significantly higher fluorescence”. Moreover, the “activity in bioactivity plate assay (zone of inhibition)” value in [6] is “active”. The “binding of bacteria to peptide” value in assay [10] is “Low binding”. The “MFI of AuNC-labeled bacteria bound to peptide” value in assay [11] came out at 62390±5975. Also, the “fluorescence of bound bacteria” value in assay [12] (2000 cfu bacteria per spot) is 31473±2932; in assay [12] (10000 cfu bacteria per spot), 30842±4696. For the same substance, the “fluorescence of bound bacteria (highest)” value in assay [12] (peptide concentration 0.13 mM, 10 μL, bacteria 10^4 cfu/10 μL) is 21275±2177. The substance also gave a fluorescence of membrane in assay [13] of 7776.
For the substance “negative control (20-mer) peptide: short sequence (20-mer; SEQ ID NO:2) derived from LeuA known not to bind L. monocytogenes (NGVHATKSGASVNWGEAFSA; Control Leucocin A fragment) [reference compound]”, the “fluorescence of AuNC-labeled bound bacteria” value in [1] amounted to 12164±2937. In addition, the “activity in bioactivity plate assay (zone of inhibition)” value in [6] was “inactive”.
